We go through 2 compounds from patent US12599578B2, “Compositions comprising enzyme-cleavable prodrugs and controlled release nafamostat and methods of use thereof” (Ensysce Biosciences Inc., priority 2021, dated 2026).

Read-outs that look alike come from different tables or passages of the source.

The conditions of data set [1]: doses of up to 200 mg KC-8 (80 mg oxycodone); cited from earlier work.
A short description of data set [2]: Plasma oxycodone pharmacokinetics after oral KC-8 with or without nafamostat in rats. It is filed as in vivo. The note with it: nafamostat co-administered with an oxycodone or hydromorphone derivative. The protocol: The drug nafamostat mesylate was added to the formulations containing the KC-8 oxycodone-derivative. In the examples described herein, the terms “nafamostat mesylate” and “nafamostat” are used interchangeably.
Formulations containing both KC-8 and optionally nafamostat were administered orally to rats. The KC-8 dose was 5 mg/kg and the nafamostat concentration was 0, 0.1, 0.5, or 1 mg/kg. Plasma concentrations of active oxycodone were measured at various time intervals over 24 hours after administration.
In particular, the rats received 50 mg/kg of KC-8 and 0, 1, 5, or 10 mg/kg of nafamostat. With zero nafamostat, blood plasma concentration experienced a maximum of about 22 ng/ml at about 2 hours, wherein the concentration rapidly descended thereafter. In alignment with the data of FIG. 2, higher concentrations of nafamostat reduced the peak concentration to about 3 ng/ml at about 8 hours.

The conditions of data set [3]: 200 mg nafamostat; cited from earlier work.
Data set [4] is described as follows: Blood hydromorphone after 1, 3, 6 or 10 pills of PF329 with or without nafamostat in rats. Format: in vivo. The conditions noted are these: rats, 1, 3, 6 or 10 pills of PF329 containing nafamostat (FIG. 5). The text has this:
The rat experiments were repeated with a derivative of hydromorphone (referred to herein as PF329), which is another known pain medication. FIGS. 4 and 5 show the blood concentration of active hydromorphone (HM) after the administration of 1, 3, 6, or 10 pills, either without or with nafamostat.

`COc1ccc2c3c1O[C@H]1C(OC(=O)N(C)CC(C)(C)CNC(=O)[C@H](CCCNC(=N)N)NC(=O)CNC(=O)CC(=O)O)=CC[C@@]4(O)[C@@H](C2)N(C)CC[C@]314` [KC-8, N-1-[3-(oxycodone-6-enol-carbonyl-methyl-amino)-2,2-dimethyl-propylamine]-arginine-glycine-malonic acid]: the safety and tolerability entry in data set [1] was “safe and well tolerated”.

For the compound `N=C(N)c1ccc2cc(OC(=O)c3ccc(N=C(N)N)cc3)ccc2c1` [nafamostat, 6-carbamimidoylnaphthalen-2-yl 4-(diaminomethyleneamino)benzoate], the “effect on maximum concentration of active drug in blood plasma” value in data set [2] is on record as “significantly reduced the maximum concentration of active drug in blood plasma”. The safety and tolerability entry in data set [3] is “safe and well tolerated”. Further, in data set [4], the “change of hydromorphone blood concentration on administering more pills” value was “little increase”.
